Experimental data as given in ChEMBL document CHEMBL5465560, “Selectivity Literature for EUbOPEN Chemogenomic Library” (2024).
Values belong to the molecule of their own block, whether it stands above or below them.

Experiments:
[1] = biological target: Tyrosine-protein kinase SYK (Homo sapiens, UniProt P43405); test: Selectivity interaction (KinomeScan (DiscoverX)) EUB0000229b SYK; details: at 10 µM
[2] = biological target: Cyclin-dependent kinase 16 (Homo sapiens) (UniProt Q00536); test: Selectivity interaction (KinomeScan (DiscoverX)) EUB0001079a CDK16; details: at 1 µM
Sequence of Cyclin-dependent kinase 16 (Homo sapiens) (Q00536 whole entry): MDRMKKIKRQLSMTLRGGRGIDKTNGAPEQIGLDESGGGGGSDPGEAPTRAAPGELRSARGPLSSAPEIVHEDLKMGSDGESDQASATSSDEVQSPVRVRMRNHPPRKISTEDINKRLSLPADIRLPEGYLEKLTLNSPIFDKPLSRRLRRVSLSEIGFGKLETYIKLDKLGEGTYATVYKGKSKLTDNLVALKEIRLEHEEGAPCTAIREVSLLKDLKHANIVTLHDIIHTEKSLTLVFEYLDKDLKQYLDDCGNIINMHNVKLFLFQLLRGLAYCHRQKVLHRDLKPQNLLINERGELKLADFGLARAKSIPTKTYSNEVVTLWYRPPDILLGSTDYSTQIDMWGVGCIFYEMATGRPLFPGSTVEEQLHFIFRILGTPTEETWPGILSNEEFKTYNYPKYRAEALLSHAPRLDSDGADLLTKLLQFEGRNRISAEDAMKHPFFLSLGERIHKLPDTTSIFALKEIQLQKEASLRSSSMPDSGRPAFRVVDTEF

[3] = test system: Leucine-rich repeat serine/threonine-protein kinase 2 (Homo sapiens), Q5S007 [R1441C]; test: (§1) Selectivity interaction (ProQinase) EUB0000171b LRRK2
Sequence of Leucine-rich repeat serine/threonine-protein kinase 2 (Homo sapiens), Q5S007 [R1441C] (Q5S007 whole entry R1441C): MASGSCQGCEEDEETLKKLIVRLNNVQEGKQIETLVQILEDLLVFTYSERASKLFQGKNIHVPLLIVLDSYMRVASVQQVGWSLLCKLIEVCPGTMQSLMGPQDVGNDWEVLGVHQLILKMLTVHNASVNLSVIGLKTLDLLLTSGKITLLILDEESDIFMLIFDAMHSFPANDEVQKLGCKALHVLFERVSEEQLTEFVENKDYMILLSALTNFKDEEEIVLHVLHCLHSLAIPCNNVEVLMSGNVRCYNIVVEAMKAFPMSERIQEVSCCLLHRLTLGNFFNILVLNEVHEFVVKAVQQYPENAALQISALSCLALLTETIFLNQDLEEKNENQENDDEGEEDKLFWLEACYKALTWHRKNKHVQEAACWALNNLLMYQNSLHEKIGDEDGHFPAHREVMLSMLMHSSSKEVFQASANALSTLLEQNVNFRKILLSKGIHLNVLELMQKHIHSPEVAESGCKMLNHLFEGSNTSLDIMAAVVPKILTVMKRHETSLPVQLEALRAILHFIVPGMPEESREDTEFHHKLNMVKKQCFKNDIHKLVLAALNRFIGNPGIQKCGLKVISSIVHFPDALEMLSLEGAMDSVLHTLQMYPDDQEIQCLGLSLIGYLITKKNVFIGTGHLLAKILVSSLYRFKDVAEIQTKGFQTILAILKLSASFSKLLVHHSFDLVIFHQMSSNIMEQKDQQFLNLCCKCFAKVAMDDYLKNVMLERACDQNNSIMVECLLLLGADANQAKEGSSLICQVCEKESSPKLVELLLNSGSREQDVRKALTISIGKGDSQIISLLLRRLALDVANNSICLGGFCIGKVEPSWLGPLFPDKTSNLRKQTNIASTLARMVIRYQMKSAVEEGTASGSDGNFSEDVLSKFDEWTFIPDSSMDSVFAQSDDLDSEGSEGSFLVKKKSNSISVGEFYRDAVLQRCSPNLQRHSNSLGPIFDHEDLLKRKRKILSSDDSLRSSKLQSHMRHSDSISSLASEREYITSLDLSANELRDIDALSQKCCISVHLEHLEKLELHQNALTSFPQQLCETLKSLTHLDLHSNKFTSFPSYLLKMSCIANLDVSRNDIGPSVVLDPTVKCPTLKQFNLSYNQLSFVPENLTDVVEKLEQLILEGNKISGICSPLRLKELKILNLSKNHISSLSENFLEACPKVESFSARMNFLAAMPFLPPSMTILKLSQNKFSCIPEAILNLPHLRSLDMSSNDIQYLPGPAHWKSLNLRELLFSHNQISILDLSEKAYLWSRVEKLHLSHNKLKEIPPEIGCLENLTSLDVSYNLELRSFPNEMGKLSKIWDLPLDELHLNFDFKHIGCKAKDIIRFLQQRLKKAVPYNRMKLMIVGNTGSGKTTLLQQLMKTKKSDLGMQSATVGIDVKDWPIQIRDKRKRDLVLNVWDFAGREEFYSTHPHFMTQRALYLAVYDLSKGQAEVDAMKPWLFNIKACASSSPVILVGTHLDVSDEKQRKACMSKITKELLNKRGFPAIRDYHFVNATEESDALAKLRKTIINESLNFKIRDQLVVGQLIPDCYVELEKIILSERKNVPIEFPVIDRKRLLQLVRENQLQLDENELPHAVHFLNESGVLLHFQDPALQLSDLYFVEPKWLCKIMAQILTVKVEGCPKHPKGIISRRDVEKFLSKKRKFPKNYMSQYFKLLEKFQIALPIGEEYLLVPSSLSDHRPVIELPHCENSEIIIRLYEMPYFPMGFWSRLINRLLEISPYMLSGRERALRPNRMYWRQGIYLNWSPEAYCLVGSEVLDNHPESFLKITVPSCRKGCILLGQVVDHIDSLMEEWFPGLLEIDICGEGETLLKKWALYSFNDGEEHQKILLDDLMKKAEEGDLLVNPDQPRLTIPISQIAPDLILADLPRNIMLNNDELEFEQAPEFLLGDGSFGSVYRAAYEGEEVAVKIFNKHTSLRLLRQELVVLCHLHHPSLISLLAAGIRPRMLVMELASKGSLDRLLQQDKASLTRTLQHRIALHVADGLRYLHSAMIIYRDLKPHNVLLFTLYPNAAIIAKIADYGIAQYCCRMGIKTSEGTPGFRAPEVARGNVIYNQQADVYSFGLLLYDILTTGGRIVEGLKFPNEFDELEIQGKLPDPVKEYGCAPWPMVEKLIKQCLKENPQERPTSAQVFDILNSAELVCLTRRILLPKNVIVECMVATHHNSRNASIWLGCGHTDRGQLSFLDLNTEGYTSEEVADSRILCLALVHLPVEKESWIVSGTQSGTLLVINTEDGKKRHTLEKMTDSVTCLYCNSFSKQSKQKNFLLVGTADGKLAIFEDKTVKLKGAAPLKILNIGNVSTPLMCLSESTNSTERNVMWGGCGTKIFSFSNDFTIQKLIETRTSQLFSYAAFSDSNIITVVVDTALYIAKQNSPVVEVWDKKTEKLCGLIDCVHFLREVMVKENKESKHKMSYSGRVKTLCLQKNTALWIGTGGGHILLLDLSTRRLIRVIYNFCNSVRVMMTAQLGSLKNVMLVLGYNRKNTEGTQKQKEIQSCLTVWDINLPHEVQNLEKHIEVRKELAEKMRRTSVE

[4] = test system: Leucine-rich repeat serine/threonine-protein kinase 2 (Homo sapiens), Q5S007 [G2019S]; test: as §1
Sequence of Leucine-rich repeat serine/threonine-protein kinase 2 (Homo sapiens), Q5S007 [G2019S] (Q5S007 whole entry G2019S): as the sequence (Q5S007 whole entry R1441C) above, with C1441R, G2019S counted along it

[5] = biological target: Leucine-rich repeat serine/threonine-protein kinase 2 (Homo sapiens, UniProt Q5S007); test: as §1
Sequence of Leucine-rich repeat serine/threonine-protein kinase 2 (Q5S007 whole entry): as the sequence (Q5S007 whole entry R1441C) above, with C1441R counted along it

[6] = test system: Leucine-rich repeat serine/threonine-protein kinase 2 (Homo sapiens), Q5S007 [I2020T]; test: as §1
Sequence of Leucine-rich repeat serine/threonine-protein kinase 2 (Homo sapiens), Q5S007 [I2020T] (Q5S007 whole entry I2020T): as the sequence (Q5S007 whole entry R1441C) above, with C1441R, I2020T counted along it

[7] = biological target: Ribosomal protein S6 kinase alpha-6 (Homo sapiens, UniProt Q9UK32); test: Selectivity interaction (ProQinase) EUB0000171b RPS6KA6
Sequence of Ribosomal protein S6 kinase alpha-6 (Q9UK32 whole entry): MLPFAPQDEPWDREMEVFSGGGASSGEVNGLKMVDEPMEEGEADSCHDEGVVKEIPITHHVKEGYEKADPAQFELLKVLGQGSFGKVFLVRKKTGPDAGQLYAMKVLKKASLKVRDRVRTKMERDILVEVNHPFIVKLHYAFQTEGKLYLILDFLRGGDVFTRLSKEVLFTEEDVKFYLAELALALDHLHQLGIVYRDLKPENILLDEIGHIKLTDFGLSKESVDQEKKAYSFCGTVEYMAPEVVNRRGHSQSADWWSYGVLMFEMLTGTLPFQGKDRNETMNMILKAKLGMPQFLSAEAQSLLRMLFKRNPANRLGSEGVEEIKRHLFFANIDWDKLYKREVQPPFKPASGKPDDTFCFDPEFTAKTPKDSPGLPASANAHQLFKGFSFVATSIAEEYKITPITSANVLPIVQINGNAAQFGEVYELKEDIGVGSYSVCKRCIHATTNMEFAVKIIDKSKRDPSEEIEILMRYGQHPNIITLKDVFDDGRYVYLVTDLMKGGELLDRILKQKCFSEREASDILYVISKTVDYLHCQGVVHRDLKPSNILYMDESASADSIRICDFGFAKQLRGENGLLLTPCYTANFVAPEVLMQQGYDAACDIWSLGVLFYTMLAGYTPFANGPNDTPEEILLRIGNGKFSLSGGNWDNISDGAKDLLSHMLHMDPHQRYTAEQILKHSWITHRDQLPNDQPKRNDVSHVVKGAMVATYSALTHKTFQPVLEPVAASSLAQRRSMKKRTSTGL

[8] = biological target: Mitogen-activated protein kinase kinase kinase kinase 5 (Homo sapiens) (UniProt Q9Y4K4); test: Selectivity interaction (KinomeScan (DiscoverX)) EUB0000092b MAP4K5; details: at 10 µM
Sequence of Mitogen-activated protein kinase kinase kinase kinase 5 (Homo sapiens) (Q9Y4K4 whole entry, looked up): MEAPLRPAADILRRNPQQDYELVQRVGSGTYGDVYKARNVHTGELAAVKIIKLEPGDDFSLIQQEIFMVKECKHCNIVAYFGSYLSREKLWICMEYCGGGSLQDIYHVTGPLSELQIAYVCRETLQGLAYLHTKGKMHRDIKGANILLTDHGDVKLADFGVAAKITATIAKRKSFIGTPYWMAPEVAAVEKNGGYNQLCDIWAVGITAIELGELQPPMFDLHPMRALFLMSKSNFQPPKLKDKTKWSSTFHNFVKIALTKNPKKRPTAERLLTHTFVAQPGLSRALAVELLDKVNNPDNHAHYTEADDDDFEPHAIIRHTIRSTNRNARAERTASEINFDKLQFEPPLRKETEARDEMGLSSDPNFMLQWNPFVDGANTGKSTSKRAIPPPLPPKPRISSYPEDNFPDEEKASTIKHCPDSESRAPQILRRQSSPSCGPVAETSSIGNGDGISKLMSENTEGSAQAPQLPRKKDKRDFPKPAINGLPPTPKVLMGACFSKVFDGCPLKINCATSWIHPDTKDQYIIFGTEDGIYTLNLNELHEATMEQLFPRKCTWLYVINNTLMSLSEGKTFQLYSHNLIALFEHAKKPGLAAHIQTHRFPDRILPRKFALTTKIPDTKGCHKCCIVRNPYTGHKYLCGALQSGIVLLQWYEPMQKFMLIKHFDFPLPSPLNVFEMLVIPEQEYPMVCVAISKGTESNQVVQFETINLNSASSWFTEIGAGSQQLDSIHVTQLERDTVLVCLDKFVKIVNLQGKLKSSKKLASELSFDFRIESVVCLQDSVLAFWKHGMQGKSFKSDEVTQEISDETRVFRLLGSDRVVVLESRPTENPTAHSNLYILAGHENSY

[9] = biological target: T1, Cyclin-dependent kinase 11A (Homo sapiens) (UniProt Q9UQ88); test: Selectivity interaction (KinomeScan (DiscoverX)) EUB0001619a CDK11A; details: at 1 µM
T1 sequence (whole entry): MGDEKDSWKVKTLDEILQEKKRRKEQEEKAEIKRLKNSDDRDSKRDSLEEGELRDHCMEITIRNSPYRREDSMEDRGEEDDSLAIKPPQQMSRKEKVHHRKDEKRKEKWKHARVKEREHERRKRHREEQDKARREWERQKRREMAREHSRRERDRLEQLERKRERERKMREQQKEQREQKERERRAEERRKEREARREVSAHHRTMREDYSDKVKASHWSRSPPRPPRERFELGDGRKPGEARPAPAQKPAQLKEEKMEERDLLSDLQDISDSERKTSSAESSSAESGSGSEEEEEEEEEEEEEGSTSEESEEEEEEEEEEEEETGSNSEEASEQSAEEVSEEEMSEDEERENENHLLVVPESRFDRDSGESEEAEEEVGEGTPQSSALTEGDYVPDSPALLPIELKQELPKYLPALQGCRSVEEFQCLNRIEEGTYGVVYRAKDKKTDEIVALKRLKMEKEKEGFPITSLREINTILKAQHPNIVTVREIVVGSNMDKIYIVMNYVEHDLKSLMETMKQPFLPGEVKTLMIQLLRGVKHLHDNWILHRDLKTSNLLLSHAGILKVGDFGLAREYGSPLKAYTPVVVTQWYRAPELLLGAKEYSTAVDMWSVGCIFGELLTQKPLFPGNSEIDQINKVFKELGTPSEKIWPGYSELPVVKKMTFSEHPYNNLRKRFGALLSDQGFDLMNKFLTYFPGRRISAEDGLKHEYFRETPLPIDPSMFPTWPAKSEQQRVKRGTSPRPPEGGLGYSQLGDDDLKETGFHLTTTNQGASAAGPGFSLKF

[10] = biological target: T2, Ribosomal protein S6 kinase delta-1 (Homo sapiens) (UniProt Q96S38); test: Selectivity interaction (Kinase panel (KiNativ target engagement assay in Jurkat cells)) EUB0001635a RPS6KC1; assay type: cell-based; details: Selectivity number of off-targets 0.0, Selectivity number of targets 233.0, Source Knowledge https://www.sciencedirect.com/science/article/pii/S2451945619300674?via%3Dihub, at 1 µM
T2 sequence (whole entry): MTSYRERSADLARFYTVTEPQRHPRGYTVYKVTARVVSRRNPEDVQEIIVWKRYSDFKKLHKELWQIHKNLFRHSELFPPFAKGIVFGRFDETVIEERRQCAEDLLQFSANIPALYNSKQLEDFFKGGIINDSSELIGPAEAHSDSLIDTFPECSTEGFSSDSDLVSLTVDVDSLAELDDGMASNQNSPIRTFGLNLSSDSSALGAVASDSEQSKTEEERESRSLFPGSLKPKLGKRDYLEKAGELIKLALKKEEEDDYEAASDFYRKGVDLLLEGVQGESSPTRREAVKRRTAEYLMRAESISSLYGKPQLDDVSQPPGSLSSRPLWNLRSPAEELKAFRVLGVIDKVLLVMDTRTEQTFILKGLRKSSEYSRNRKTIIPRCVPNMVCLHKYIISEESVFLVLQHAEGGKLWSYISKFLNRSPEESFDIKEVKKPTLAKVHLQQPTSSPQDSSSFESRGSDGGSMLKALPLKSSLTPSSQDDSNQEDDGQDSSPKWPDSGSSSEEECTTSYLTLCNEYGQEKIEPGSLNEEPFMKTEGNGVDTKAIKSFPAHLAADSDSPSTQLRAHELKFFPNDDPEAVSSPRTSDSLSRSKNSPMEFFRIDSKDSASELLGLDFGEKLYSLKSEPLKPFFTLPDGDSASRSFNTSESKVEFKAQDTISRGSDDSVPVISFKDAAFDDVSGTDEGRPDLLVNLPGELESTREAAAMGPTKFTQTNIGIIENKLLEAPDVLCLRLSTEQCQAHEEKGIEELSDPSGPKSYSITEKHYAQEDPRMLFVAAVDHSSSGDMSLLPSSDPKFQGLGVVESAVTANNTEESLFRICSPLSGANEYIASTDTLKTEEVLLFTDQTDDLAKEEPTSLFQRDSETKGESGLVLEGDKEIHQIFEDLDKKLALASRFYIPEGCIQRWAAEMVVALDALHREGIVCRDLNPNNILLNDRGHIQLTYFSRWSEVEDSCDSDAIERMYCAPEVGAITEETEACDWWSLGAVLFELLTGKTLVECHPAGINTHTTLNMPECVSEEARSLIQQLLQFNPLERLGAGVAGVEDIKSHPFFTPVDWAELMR

Structure (SMILES): COc1cc(N(C)c2ccnc3ccc(C(F)(F)F)cc23)cc(OC)c1OC
% binding [1]: 94%

Structure (SMILES): Nc1cnc(N2CCc3cc(S(=O)(=O)Nc4c(F)cc(Cl)cc4F)cc(N4CCCC4=O)c32)nc1 [TP-020n]
% of control [2]: 98%

% of control ([3]; at 1 µM): 80%
% of control ([3]; at 5 µM): 51%
% of control ([4]; at 1 µM): 72%
% of control ([4]; at 5 µM): 52%
% of control ([5]; at 1 µM): 77%
% of control ([5]; at 5 µM): 47%
% of control ([6]; at 1 µM): 71%
% of control ([6]; at 5 µM): 49%
% of control ([7]; at 1 µM): 88%
% of control ([7]; at 5 µM): 68%
Structure (SMILES): C=CC(=O)Nc1cccc(C(=O)Nc2ccc(Nc3cc(-c4[nH]c(SC)nc4C)ccn3)cc2)c1

Structure (SMILES): CCC(=O)N1CCN(c2ccc(-n3c(=O)ccc4cnc5ccc(-c6cnc7ccccc7c6)cc5c43)cc2C(F)(F)F)CC1
% of control [8]: 8.1%

Structure (SMILES): N#Cc1cccc(-c2c[nH]c3ncnc(N4CCOCC4)c23)c1
% of control [9]: 48%

Structure (SMILES): C=CC(=O)Nc1ccc(C(=O)Nc2[nH]nc3c2CN(C(=O)N[C@H](CN(C)C)c2ccccc2)C3(C)C)cc1
% of engagement [10]: 0.7%
